# System: SCID mice grafted with human skin infected with Nm 2C4.3
# Test: Outcome of meningococcal infection in SCID mice grafted with human skin (survival, with or without antibiotics)
# Assay type: in vivo
# Details: 200 mg kg-1 cefotaxime
# Experimental: A-D, SCID mice grafted with human skin were infected intravenously with Nm 2C4.3 wild-type strain (5×10^6 bacteria); 2 h after bacterial challenge, mice received recombinant human ANGPTL4 (1 μg, intravenously), cefotaxime (200 mg kg-1, intraperitoneally) alone or in combination with ANGPTL4 or vehicle as a control. 18 h following bacterial challenge, ANGPTL4 (1 μg) and cefotaxime (200 mg kg-1) were re-administered. This experiment was performed twice with n=3 or 4 mice per group, using skin from two different donors. A, A schematic representation of the protocol used in vivo. B, Bacteraemia 4, 18, 48 and 72 h post-infection (mean±s.e.m.). C, Survival curve: * P=0.0275; two-sided log-rank Mantel-Cox survival analysis. D, Thrombosis within the skin grafts at 4 h post-infection was assessed by immunofluorescence analysis and quantified as described in FIG. 8 (error bars show mean±s.e.m.; 40 vessels per mouse were analysed; n=4 mice per group; *** P<0.001; two-tailed Student's t-test.
# Six-week-old CB17/Icr-Prkdcscid female mice were obtained from Janvier Labs. Human skin tissues were obtained from adult patients undergoing plastic surgery in the Service de Chirurgie Plastique et Reconstructive of the Groupe Hospitalier Saint-Joseph. […] Experimental procedures were performed as previously described in accordance with the guidelines of the Institut National de la Santé et de la Recherche Médicale and conformed to the European ethical legislation (Directive 2010/63/EU). The experimental protocol was approved by the Animal Experimentation Ethics Committee of the Université Paris Descartes (consent forms CEEA34.O.J.L.039.12 and 2018012515596498). […] A skin flap was created and a full thickness human skin graft was placed onto the wound bed. The transplants were held in place with 6-0 non-absorbable monofilament suture materials, and the flap was then sutured above the transplant. Grafted mice were infected 4-6 weeks after human skin transplantation. N. meningitidis was grown overnight at 37° C. on GCB agar plates prepared without iron and supplemented with 15 μM deferoxamine (Desferal, Novartis). Bacterial colonies were harvested and cultured in RPMI media with 1% BSA medium and 0.06 μM deferoxamine with gentle agitation to reach the exponential phase of growth. Bacteria were then resuspended in physiological saline solution. Mice were infected intravenously with 200 μl (5×10^6 bacteria) of this bacterial suspension. A 10 mg dose of human holotransferrin (R&D Systems) was administered intraperitoneally just before infection. Mice were killed at 4 h after infection. Human skin grafts were carefully collected using a sterile cutter. The tissue was washed in PBS and fixed overnight at 4° C. in 4% paraformaldehyde in phosphate buffer. After washing in phosphate buffer, the specimens were embedded in OCT medium and then frozen at −80° C. Sections of the dermis (7 μm thick) were immobilized on Superfrost Plus microscope slides and subjected to immunofluorescence analysis. Sections were incubated with the primary antibodies for 1 h in PBS/3% BSA then DAPI was added to Alexa-conjugated secondary antibodies for 1 h. After additional washing, coverslips were mounted in glycergel (Dako) and were further analysed using a slide scanner (Lamina, Perkin Elmer). Analysis of the images was performed using ImageJ software (NIH). […]
# We then analysed whether ANGPTL4 could provide a beneficial effect when administered with antibiotics.
smiles,measurement,value
CO/N=C(\C(=O)N[C@@H]1C(=O)N2C(C(=O)O)=C(COC(C)=O)CS[C@H]12)c1csc(N)n1 [cefotaxime],bactericidal effect (bacteraemia),strong bactericidal effect
same,mice survival,associated with mice survival
same,thrombosis at 4 h post-infection,did not prevent the triggering of thrombosis
